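All cell lines were grown in 96-well plates and treated with compound for 48 hours. At the GI50, growth is halved. TGI is the concentration that stops growth completely.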
Legend:
Assay in all cases: NCI tumour cell line growth inhibition, 48 h
OVCAR-5 ovarian = tested on: OVCAR-5 ovarian
NCI-H460 lung = tested on: NCI-H460 lung
SK-OV-3 ovarian = tested on: SK-OV-3 ovarian
CAKI-1 renal = tested on: CAKI-1 renal
OVCAR-8 ovarian = tested on: OVCAR-8 ovarian
PC-3 prostate = tested on: PC-3 prostate
SK-MEL-5 melanoma = tested on: SK-MEL-5 melanoma
NCI/ADR-RES ovarian = tested on: NCI/ADR-RES ovarian
HCC-2998 colon = tested on: HCC-2998 colon
SNB-19 CNS = tested on: SNB-19 CNS
SF-268 CNS = tested on: SF-268 CNS
NCI-H23 lung = tested on: NCI-H23 lung
LOX IMVI melanoma = tested on: LOX IMVI melanoma
SR leukemia = tested on: SR leukemia
UACC-62 melanoma = tested on: UACC-62 melanoma
MOLT-4 leukemia = tested on: MOLT-4 leukemia
SW-620 colon = tested on: SW-620 colon
K-562 leukemia = tested on: K-562 leukemia
EKVX NSCLC = tested on: EKVX NSCLC
MDA-MB-231 breast = tested on: MDA-MB-231 breast
SF-295 CNS = tested on: SF-295 CNS
HT29 colon = tested on: HT29 colon
DU-145 prostate = tested on: DU-145 prostate
UO-31 renal = tested on: UO-31 renal
MALME-3M melanoma = tested on: MALME-3M melanoma
SN12C renal = tested on: SN12C renal
NCI-H522 lung = tested on: NCI-H522 lung
COLO 205 colon = tested on: COLO 205 colon
ACHN renal = tested on: ACHN renal
CCRF-CEM leukemia = tested on: CCRF-CEM leukemia
A549 NSCLC = tested on: A549 NSCLC
KM12 colon = tested on: KM12 colon
UACC-257 melanoma = tested on: UACC-257 melanoma
U251 CNS = tested on: U251 CNS
HOP-92 NSCLC = tested on: HOP-92 NSCLC
HCT-15 colon = tested on: HCT-15 colon
SK-MEL-28 melanoma = tested on: SK-MEL-28 melanoma
OVCAR-3 ovarian = tested on: OVCAR-3 ovarian
SNB-75 CNS = tested on: SNB-75 CNS
HL-60(TB) leukemia = tested on: HL-60(TB) leukemia
IGROV1 ovarian = tested on: IGROV1 ovarian
SK-MEL-2 melanoma = tested on: SK-MEL-2 melanoma
NCI-H226 lung = tested on: NCI-H226 lung
MDA-N = tested on: MDA-N
MDA-MB-435 = tested on: MDA-MB-435
786-0 renal = tested on: 786-0 renal
M14 melanoma = tested on: M14 melanoma
A498 renal = tested on: A498 renal
SF-539 CNS = tested on: SF-539 CNS
HCT-116 colon = tested on: HCT-116 colon
HOP-62 NSCLC = tested on: HOP-62 NSCLC
OVCAR-4 ovarian = tested on: OVCAR-4 ovarian
T-47D breast = tested on: T-47D breast
RXF 393 renal = tested on: RXF 393 renal
BT-549 breast = tested on: BT-549 breast
TK-10 renal = tested on: TK-10 renal
MCF7 breast = tested on: MCF7 breast
HS 578T breast = tested on: HS 578T breast
RPMI-8226 leukemia = tested on: RPMI-8226 leukemia

In the case of `O=C(/C=C/c1ccc(O)cc1)c1ccc2c(c1)OCO2`, the TGI (OVCAR-5 ovarian) is reported as 93000 nM, the TGI (NCI-H460 lung) is reported as 77200 nM and the TGI (SK-OV-3 ovarian) is reported as 82600 nM. For the same molecule, the TGI (CAKI-1 renal) was 35300 nM, the TGI (OVCAR-8 ovarian) was 29600 nM and the TGI (PC-3 prostate) was 62200 nM. The TGI (SK-MEL-5 melanoma) was 29400 nM, the TGI (NCI/ADR-RES ovarian) was 67900 nM and the TGI (HCC-2998 colon) was 40500 nM. For the same molecule, the TGI (SNB-19 CNS) was 36300 nM, the TGI (SF-268 CNS) was 58500 nM and the TGI (NCI-H23 lung) was 39200 nM. The TGI (LOX IMVI melanoma) was 47000 nM, the TGI (SR leukemia) was 33600 nM and the TGI (UACC-62 melanoma) was 47600 nM. It also gave a TGI (MOLT-4 leukemia) of 52300 nM, a TGI (SW-620 colon) of 42900 nM and a TGI (K-562 leukemia) of 81500 nM. For the same molecule, the TGI (EKVX NSCLC) was > 100000 nM, the TGI (MDA-MB-231 breast) was 37400 nM and the TGI (SF-295 CNS) was 55500 nM. For the same molecule, the TGI (HT29 colon) was 33700 nM, the TGI (DU-145 prostate) was 76700 nM and the TGI (UO-31 renal) was 38800 nM. For the same molecule, the TGI (MALME-3M melanoma) was > 100000 nM, the TGI (SN12C renal) was 30700 nM and the TGI (NCI-H522 lung) was 34200 nM. The TGI (COLO 205 colon) was 32000 nM, the TGI (ACHN renal) was 52800 nM and the TGI (CCRF-CEM leukemia) was 5690 nM. For the same molecule, the TGI (A549 NSCLC) was 44800 nM, the TGI (KM12 colon) was 33700 nM and the TGI (UACC-257 melanoma) was 33600 nM. The TGI (U251 CNS) was 36200 nM, the TGI (HOP-92 NSCLC) was 58800 nM and the TGI (HCT-15 colon) was 83800 nM. The TGI (SK-MEL-28 melanoma) was 42300 nM, the TGI (OVCAR-3 ovarian) was 41000 nM and the TGI (SNB-75 CNS) was 50300 nM. The TGI (HL-60(TB) leukemia) was 41300 nM, the TGI (IGROV1 ovarian) was 28900 nM and the TGI (SK-MEL-2 melanoma) was 62400 nM. For the same molecule, the TGI (NCI-H226 lung) was 34100 nM, the TGI (MDA-N) was 86100 nM and the TGI (MDA-MB-435) was 69500 nM. For the same molecule, the TGI (786-0 renal) was 57700 nM, the TGI (M14 melanoma) was 51900 nM and the TGI (A498 renal) was 38400 nM. It also gave a TGI (SF-539 CNS) of 26800 nM, a TGI (HCT-116 colon) of 25400 nM and a TGI (HOP-62 NSCLC) of 38500 nM. For the same molecule, the TGI (OVCAR-4 ovarian) was 48000 nM, the TGI (T-47D breast) was 75300 nM and the TGI (RXF 393 renal) was 38700 nM.

For `CC(C)(C)C(=O)c1c(C(F)(F)F)n([O-])c2ccccc2[n+]1=O`, the GI50 (BT-549 breast) was 428 nM, the TGI (BT-549 breast) was 1590 nM and the GI50 (OVCAR-5 ovarian) was 998 nM. The TGI (OVCAR-5 ovarian) was 2150 nM, the GI50 (NCI-H460 lung) was 439 nM and the TGI (NCI-H460 lung) was 1520 nM. For the same molecule, the GI50 (SK-OV-3 ovarian) was 1670 nM, the TGI (SK-OV-3 ovarian) was 3070 nM and the GI50 (CAKI-1 renal) was 282 nM. For the same molecule, the TGI (CAKI-1 renal) was 811 nM, the GI50 (OVCAR-8 ovarian) was 254 nM and the TGI (OVCAR-8 ovarian) was 1350 nM. It also gave a GI50 (PC-3 prostate) of 817 nM, a TGI (PC-3 prostate) of 2380 nM and a GI50 (SK-MEL-5 melanoma) of 240 nM. It also gave a TGI (SK-MEL-5 melanoma) of 830 nM, a GI50 (NCI/ADR-RES ovarian) of 571 nM and a TGI (NCI/ADR-RES ovarian) of 2360 nM. For the same molecule, the GI50 (SNB-19 CNS) was 931 nM, the TGI (SNB-19 CNS) was 2910 nM and the GI50 (SF-268 CNS) was 549 nM. For the same molecule, the TGI (SF-268 CNS) was 1750 nM, the GI50 (TK-10 renal) was 896 nM and the TGI (TK-10 renal) was 2180 nM. For the same molecule, the GI50 (NCI-H23 lung) was 1170 nM, the TGI (NCI-H23 lung) was 2390 nM and the GI50 (LOX IMVI melanoma) was 396 nM. The TGI (LOX IMVI melanoma) was 1700 nM, the TGI (SR leukemia) was 209 nM and the GI50 (UACC-62 melanoma) was 1330 nM. The TGI (UACC-62 melanoma) was 2660 nM, the GI50 (MOLT-4 leukemia) was 157 nM and the TGI (MOLT-4 leukemia) was 853 nM. It also gave a GI50 (SW-620 colon) of 467 nM, a TGI (SW-620 colon) of 2000 nM and a GI50 (K-562 leukemia) of 757 nM. The TGI (K-562 leukemia) was 2380 nM, the GI50 (EKVX NSCLC) was 757 nM and the TGI (EKVX NSCLC) was 2300 nM. For the same molecule, the GI50 (MDA-MB-231 breast) was 560 nM, the TGI (MDA-MB-231 breast) was 2300 nM and the GI50 (SF-295 CNS) was 294 nM. For the same molecule, the TGI (SF-295 CNS) was 1270 nM, the GI50 (HT29 colon) was 368 nM and the GI50 (DU-145 prostate) was 356 nM. It also gave a TGI (DU-145 prostate) of 892 nM, a GI50 (UO-31 renal) of 342 nM and a TGI (UO-31 renal) of 729 nM. For the same molecule, the GI50 (MALME-3M melanoma) was 973 nM, the TGI (MALME-3M melanoma) was 2340 nM and the GI50 (SN12C renal) was 665 nM. It also gave a TGI (SN12C renal) of 2320 nM, a GI50 (NCI-H522 lung) of 407 nM and a TGI (NCI-H522 lung) of 924 nM. The GI50 (COLO 205 colon) was 616 nM, the TGI (COLO 205 colon) was 1730 nM and the GI50 (ACHN renal) was 272 nM. The TGI (ACHN renal) was 743 nM, the GI50 (CCRF-CEM leukemia) was 577 nM and the TGI (CCRF-CEM leukemia) was 2340 nM. It also gave a GI50 (A549 NSCLC) of 485 nM, a TGI (A549 NSCLC) of 1260 nM and a GI50 (KM12 colon) of 905 nM. The TGI (KM12 colon) was 2400 nM, the GI50 (UACC-257 melanoma) was 1460 nM and the TGI (UACC-257 melanoma) was 5570 nM. For the same molecule, the GI50 (U251 CNS) was 341 nM, the TGI (U251 CNS) was 1160 nM and the GI50 (HOP-92 NSCLC) was 573 nM. For the same molecule, the TGI (HOP-92 NSCLC) was 1930 nM, the GI50 (HCT-15 colon) was 365 nM and the TGI (HCT-15 colon) was 914 nM. The GI50 (SK-MEL-28 melanoma) was 1130 nM, the TGI (SK-MEL-28 melanoma) was 6120 nM and the GI50 (MCF7 breast) was 421 nM. It also gave a TGI (MCF7 breast) of 2030 nM, a GI50 (OVCAR-3 ovarian) of 174 nM and a TGI (OVCAR-3 ovarian) of 698 nM. For the same molecule, the GI50 (SNB-75 CNS) was 460 nM, the TGI (SNB-75 CNS) was 2050 nM and the GI50 (HL-60(TB) leukemia) was 204 nM. It also gave a TGI (HL-60(TB) leukemia) of 1080 nM, a GI50 (IGROV1 ovarian) of 50.5 nM and a TGI (IGROV1 ovarian) of 172 nM. It also gave a TGI (SK-MEL-2 melanoma) of 3230 nM, a GI50 (HS 578T breast) of 185 nM and a TGI (HS 578T breast) of 728 nM. The GI50 (NCI-H226 lung) was 840 nM, the TGI (NCI-H226 lung) was 2480 nM and the GI50 (MDA-MB-435) was 606 nM. For the same molecule, the TGI (MDA-MB-435) was 1680 nM, the GI50 (786-0 renal) was 729 nM and the TGI (786-0 renal) was 2460 nM. The GI50 (M14 melanoma) was 1450 nM, the TGI (M14 melanoma) was 4850 nM and the GI50 (A498 renal) was 565 nM. It also gave a TGI (A498 renal) of 1750 nM, a GI50 (SF-539 CNS) of 846 nM and a TGI (SF-539 CNS) of 2370 nM. It also gave a GI50 (HCT-116 colon) of 619 nM, a TGI (HCT-116 colon) of 1590 nM and a GI50 (HOP-62 NSCLC) of 1470 nM. The TGI (HOP-62 NSCLC) was 2940 nM, the GI50 (OVCAR-4 ovarian) was 600 nM and the TGI (OVCAR-4 ovarian) was 2430 nM. It also gave a GI50 (RPMI-8226 leukemia) of 23.4 nM, a TGI (RPMI-8226 leukemia) of 246 nM and a GI50 (T-47D breast) of 597 nM. It also gave a TGI (T-47D breast) of 1780 nM, a GI50 (RXF 393 renal) of 868 nM and a TGI (RXF 393 renal) of 2280 nM.
